Reference: patent US12258344B2, “Azaaromatic amide derivatives for the treatment of cancer” (SHENZHEN FORWARD PHARMACEUTICALS CO., LTD., priority 2019, dated 2025)
Counter-ions that a name gives are not always drawn. Like-named read-outs stand apart in the source and are kept apart here.

Legend:
Format in all cases: cell-based
BaF3 (EGFR/V769insASV) = BaF3 (EGFR/V769insASV) (Homo sapiens, UniProt P00533, DUP767-769, cells depend on it); assay: Test 15: EGFR exon 20 inserted V769insASV cell proliferation test; details: 72 hours, Cell Titer-Glo, read-out: Test 15 IC50
Experimental: Test 15: EGFR Exon 20 Inserted V769insASV Cell Proliferation Test
(§1) The number of viable cells in the culture was measured according to the protocol described in Promega's Cell Titer-Glo Luminescent cell Viability Assay (Promega catalog number #G7570). 90 μl of cells (3000 cells/well) were cultured in growth medium in a Corning black transparent bottom 96-well plate, and cultured in a 5% CO2 humidified incubator at 37° C. overnight. The compound serially diluted in 100% DMSO was added to the cells using a pipette, and the cells were incubated for another 72 hours. 100 μl of the mixed Cell Titer-Glo reagent was added to the cells in the 96-well culture plate to lyse the cells and mix gently. Subsequently, the […] was detected on the Envision microplate detector to obtain the data of each compound. Finally, the data was input into a suitable software package (such as Prism) for curve fitting analysis.

BaF3 (EGFR/A763insFQEA) = BaF3 (EGFR/A763insFQEA) (Homo sapiens, UniProt P00533, INS763FQEA, cells depend on it); assay: Test 14: EGFR exon 20 inserted A763insFQEA cell proliferation test; details: 72 hours, Cell Titer-Glo, read-out: Test 14 IC50
Experimental: Test 14: EGFR Exon 20 Inserted A763insFQEA Cell Proliferation Test
as §1, with “(3,000” for “(3000”

BaF3 (EGFR/D770insSVD) = target: T1, BaF3 (EGFR/D770insSVD) (Homo sapiens, UniProt P00533, DUP768-770, cells depend on it); assay: Test 13: EGFR exon 20 inserted D770insSVD cell proliferation test; details: BaF3 (EGFR/D770insSVD), 72 hours, Cell Titer-Glo, read-out: Test 13 IC50
T1 construct: Test 13 IC50 (nM); other: BaF3 (EGFR/D770insSVD), 72 hours, Cell Titer-Glo
Experimental: Test 13: EGFR Exon 20 Inserted D770insSVD Cell Proliferation Test
as §1, with “(3,000” for “(3000”

[1] = tested on: NCI-H1975 (EGFR L858R/T790M double mutant); assay: Test 1: EGFR L858R/T790M (EGFR double mutant) cell proliferation test; details: Homo sapiens; NCI-H1975 cells, 72 hours, Cell Titer-Glo
Experimental: Test 1: EGFR L858R/T790M (EGFR Double Mutant) Cell Proliferation Test
The human lung cell line NCI-H1975 (EGFR L858R/T790M double mutant) was obtained from the American Type Culture Collection. NCI-H1975 cells were cultured in RPMI1640 medium containing 10% fetal bovine serum and 2 mM glutamine. The cells were grown at 37° C. in a humidified incubator with 5% CO2.
as §1, with “(8,000” for “(3000”

Chain of BaF3 (EGFR/A763insFQEA) (P00533 with tags, fused parts or gaps INS763FQEA): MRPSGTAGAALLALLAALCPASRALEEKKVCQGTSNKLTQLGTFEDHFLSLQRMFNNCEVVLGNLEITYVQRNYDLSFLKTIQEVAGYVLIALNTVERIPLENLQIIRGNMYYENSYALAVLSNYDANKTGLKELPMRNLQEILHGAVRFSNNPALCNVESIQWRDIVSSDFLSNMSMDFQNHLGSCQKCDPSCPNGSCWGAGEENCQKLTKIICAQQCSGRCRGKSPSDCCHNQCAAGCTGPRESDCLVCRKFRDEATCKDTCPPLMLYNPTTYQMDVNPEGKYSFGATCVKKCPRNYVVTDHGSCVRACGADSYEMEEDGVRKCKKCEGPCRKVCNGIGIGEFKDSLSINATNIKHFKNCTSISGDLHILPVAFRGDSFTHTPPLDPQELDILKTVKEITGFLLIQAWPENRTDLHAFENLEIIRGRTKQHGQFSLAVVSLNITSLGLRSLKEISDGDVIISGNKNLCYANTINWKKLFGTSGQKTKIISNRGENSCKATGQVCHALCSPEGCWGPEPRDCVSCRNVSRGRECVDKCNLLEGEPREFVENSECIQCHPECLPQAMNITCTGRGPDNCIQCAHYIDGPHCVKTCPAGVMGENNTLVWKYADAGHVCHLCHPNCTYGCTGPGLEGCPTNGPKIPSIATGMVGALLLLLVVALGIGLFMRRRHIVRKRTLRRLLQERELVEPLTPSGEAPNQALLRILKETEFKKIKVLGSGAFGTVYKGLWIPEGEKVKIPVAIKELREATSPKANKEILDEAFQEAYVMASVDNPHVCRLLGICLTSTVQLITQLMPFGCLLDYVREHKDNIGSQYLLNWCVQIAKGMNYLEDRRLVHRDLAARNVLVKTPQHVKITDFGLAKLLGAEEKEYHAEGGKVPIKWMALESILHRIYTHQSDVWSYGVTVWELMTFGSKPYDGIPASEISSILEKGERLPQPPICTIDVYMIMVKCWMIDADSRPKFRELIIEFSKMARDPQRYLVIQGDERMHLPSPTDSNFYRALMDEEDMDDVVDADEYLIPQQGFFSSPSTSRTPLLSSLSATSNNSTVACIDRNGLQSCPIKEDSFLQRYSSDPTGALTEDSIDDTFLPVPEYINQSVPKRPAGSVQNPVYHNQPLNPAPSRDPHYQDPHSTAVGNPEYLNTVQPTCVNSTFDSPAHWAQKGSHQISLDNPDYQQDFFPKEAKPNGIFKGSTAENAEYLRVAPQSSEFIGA
T1 sequence (P00533 with tags, fused parts or gaps DUP768-770): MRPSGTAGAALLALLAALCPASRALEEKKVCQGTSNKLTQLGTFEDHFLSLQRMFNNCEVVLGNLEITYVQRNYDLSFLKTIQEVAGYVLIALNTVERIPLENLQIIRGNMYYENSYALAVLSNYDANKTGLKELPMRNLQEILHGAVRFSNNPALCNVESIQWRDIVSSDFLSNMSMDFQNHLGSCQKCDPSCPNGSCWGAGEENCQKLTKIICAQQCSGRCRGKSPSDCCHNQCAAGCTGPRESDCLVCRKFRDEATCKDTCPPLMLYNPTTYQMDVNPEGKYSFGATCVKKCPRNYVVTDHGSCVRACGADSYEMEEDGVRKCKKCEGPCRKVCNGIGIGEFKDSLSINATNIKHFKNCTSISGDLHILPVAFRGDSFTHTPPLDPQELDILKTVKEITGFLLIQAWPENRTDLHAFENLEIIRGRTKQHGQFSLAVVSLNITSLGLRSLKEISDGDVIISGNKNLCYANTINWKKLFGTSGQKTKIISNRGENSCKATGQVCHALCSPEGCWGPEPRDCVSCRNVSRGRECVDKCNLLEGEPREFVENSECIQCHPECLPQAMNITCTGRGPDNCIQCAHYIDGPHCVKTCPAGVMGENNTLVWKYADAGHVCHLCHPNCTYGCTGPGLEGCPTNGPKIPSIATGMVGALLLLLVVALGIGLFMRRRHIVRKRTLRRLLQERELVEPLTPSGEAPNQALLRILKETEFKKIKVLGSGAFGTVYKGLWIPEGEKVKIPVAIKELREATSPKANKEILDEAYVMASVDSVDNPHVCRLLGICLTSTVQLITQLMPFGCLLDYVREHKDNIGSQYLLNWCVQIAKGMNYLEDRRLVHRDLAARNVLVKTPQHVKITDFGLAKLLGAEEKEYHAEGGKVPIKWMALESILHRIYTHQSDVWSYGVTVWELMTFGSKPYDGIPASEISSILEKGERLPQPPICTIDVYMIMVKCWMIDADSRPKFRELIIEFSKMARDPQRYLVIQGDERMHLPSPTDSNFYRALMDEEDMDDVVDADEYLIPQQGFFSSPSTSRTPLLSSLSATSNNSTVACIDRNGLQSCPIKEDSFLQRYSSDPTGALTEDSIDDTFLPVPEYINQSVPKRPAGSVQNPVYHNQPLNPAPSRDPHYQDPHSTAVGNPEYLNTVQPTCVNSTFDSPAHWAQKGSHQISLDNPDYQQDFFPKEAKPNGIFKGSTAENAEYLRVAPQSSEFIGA
Chain of BaF3 (EGFR/V769insASV) (P00533 with tags, fused parts or gaps DUP767-769): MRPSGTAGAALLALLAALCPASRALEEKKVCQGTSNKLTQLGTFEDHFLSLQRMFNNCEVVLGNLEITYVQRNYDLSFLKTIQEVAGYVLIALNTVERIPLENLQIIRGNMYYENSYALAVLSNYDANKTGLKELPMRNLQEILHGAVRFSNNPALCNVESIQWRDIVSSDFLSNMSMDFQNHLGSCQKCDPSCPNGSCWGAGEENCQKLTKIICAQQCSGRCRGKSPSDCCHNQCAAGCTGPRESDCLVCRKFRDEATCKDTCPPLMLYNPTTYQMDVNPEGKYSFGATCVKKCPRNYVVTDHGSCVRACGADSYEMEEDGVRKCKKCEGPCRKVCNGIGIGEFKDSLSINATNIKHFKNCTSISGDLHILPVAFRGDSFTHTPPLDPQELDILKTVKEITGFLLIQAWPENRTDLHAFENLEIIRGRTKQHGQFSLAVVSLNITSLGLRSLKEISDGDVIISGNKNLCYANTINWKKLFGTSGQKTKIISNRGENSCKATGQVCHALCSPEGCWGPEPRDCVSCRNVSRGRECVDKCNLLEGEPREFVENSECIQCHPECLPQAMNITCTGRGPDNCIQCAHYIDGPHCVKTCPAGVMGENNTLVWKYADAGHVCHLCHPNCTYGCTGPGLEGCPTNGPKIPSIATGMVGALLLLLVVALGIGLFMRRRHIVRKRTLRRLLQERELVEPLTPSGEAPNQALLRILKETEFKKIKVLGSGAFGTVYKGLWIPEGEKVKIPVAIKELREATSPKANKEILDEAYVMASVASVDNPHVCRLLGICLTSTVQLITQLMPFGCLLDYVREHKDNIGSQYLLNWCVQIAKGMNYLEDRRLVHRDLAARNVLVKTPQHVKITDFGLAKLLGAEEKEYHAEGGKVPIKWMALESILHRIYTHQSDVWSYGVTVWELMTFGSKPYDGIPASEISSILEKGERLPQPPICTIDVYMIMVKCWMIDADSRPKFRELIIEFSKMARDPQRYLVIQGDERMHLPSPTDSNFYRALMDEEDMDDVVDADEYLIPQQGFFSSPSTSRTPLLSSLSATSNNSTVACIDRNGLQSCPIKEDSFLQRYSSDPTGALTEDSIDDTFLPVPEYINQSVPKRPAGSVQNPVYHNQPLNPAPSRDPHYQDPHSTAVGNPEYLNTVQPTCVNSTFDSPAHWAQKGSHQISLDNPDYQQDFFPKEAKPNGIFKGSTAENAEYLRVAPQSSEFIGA

Structure (SMILES) | GI50 (BaF3 (EGFR/V769insASV)) [nM] | GI50 (BaF3 (EGFR/A763insFQEA)) [nM] | GI50 (BaF3 (EGFR/D770insSVD)) [nM] | GI50 (BaF3 (EGFR/V769insASV); hydrochloride) [nM] | GI50 (BaF3 (EGFR/A763insFQEA); hydrochloride) [nM] | GI50 (BaF3 (EGFR/D770insSVD); hydrochloride) [nM] | IC50 [1] [nM]
C=CC(=O)Nc1cc(Nc2nccc(-c3cn(C)c4ccccc34)n2)c(OCC)cc1N(C)CCNC [Compound 24, N-(4-ethoxy-2-(methyl(2-(methylamino)ethyl)amino)-5-((4-(1-methyl-1H-indol-3-yl)pyrimidine-2-yl)amino)phenyl)acrylamide] | 266 | 213 | 207 | – | – | – | –
C=CC(=O)Nc1cc(Nc2nccc(-c3cn(C)c4ccc(F)cc34)n2)c(OC(F)F)cc1N(C)CCNC [Compound 20, N-(4-(difluoromethoxy)-5-((4-(5-fluoro-1-methyl-1H-indol-3-yl)pyrimidin-2-yl)amino)-2-(methyl(2-(methylamino)ethyl)amino)phenyl)acrylamide] | 155 | 75.1 | 89.2 | – | – | – | –
C=CC(=O)Nc1cc(Nc2nccc(-c3cn(C)c4ccc(F)cc34)n2)c(OC)cc1N(C)CCNC [Compound 25, N-(5-((4-(5-fluoro-1-methyl-1H-indol-3-yl)pyrimidin-2-yl)amino)-4-methoxy-2-(methyl(2-(methylamino)ethyl)amino)phenyl)acrylamide] | 104 | 51 | 78.9 | – | – | – | –
C=CC(=O)Nc1cc(Nc2ncnc(-c3cnc4c(C)cccn34)n2)c(OC)cc1N(C)CCN(C)C [Compound 19, N-(2-((2-(dimethylamino)ethyl)(methyl)amino)-4-methoxy-5-((4-(8-methylimidazole[1,2-a]pyridin-3-yl)-1,3,5-triazin-2-yl)amino)phenyl)acrylamide] | 148 | 42.6 | 144 | – | – | – | –
C=CC(=O)Nc1cc(Nc2nccc(-c3cn(C)c4ccccc34)n2)c(OCC)cc1N(C)CCN(C)C [Compound 23, N-(2-((2-(dimethylamino)ethyl)(methyl)amino)-4-ethoxy-5-((4-(1-methyl-1H-indole-3-yl)pyrimidin-2-yl)amino)phenyl)acrylamide] | 264 | 122 | 219 | – | – | – | –
C=CC(=O)Nc1cc(Nc2nccc(-c3cn(C)c4ccccc34)n2)c(OC(F)F)cc1N(C)CCNC [Compound 26, N-(4-(difluoromethoxy)-2-(methyl(2-(methylamino)ethyl)amino)-5-((4-(1-methyl-1H-indole-3-yl)pyrimidin-2-yl)amino)phenyl)acrylamide] | 126 | 38.3 | 142 | – | – | – | –
C=CC(=O)Nc1cc(Nc2nccc(-c3cn(C)c4ccc(F)cc34)n2)c(OC)cc1N(C)CCN(C)C [Compound 21, N-(2-((2-(dimethylamino)ethyl)(methyl)amino)-5-((4-(5-fluoro-1-methyl-1H-indol-3-yl)pyrimidin-2-yl)amino)-4-methoxyphenyl)acrylamide] | 98.6 | 50.1 | 81 | – | – | – | –
C=CC(=O)Nc1cc(Nc2nccc(-c3cn(C)c4ccc(F)cc34)n2)c(OCC)cc1N(C)CCN(C)C [Compound 22, N-(2-((2-(dimethylamino)ethyl)(methyl)amino)-4-ethoxy-5-((4-(5-fluoro-1-methyl-1H-indol-3-yl)pyrimidin-2-yl)amino)phenyl)acrylamide] | 365 | 193 | 248 | – | – | – | –

Next, values leading:

GI50 (BaF3 (EGFR/V769insASV)) [nM] | GI50 (BaF3 (EGFR/A763insFQEA)) [nM] | GI50 (BaF3 (EGFR/D770insSVD)) [nM] | GI50 (BaF3 (EGFR/V769insASV); hydrochloride) [nM] | GI50 (BaF3 (EGFR/A763insFQEA); hydrochloride) [nM] | GI50 (BaF3 (EGFR/D770insSVD); hydrochloride) [nM] | IC50 [1] [nM] | Structure (SMILES)
325 | 170 | 454 | – | – | – | – | C=CC(=O)Nc1cccc(Oc2nc(Nc3ccc(N4CCN(C)CC4)cc3)nc3ccsc23)c1 [Compound 36, N-(3-((2-((4-(4-methylpiperazin-1-yl)phenyl)amine)thieno[3,2-d]pyrimidin-4-yl)oxo)phenyl)acrylamide]
177 | 63.6 | 239 | – | – | – | – | C=CC(=O)Nc1cc(Nc2nccc(-c3cn(C4CC4)c4ccccc34)n2)c(OC)cc1N(C)CCN(C)C [Compound 30]
> 3330 | 71.2 | > 3330 | – | – | – | – | COc1cc2ncnc(Nc3cccc(Cl)c3F)c2cc1OC(=O)N1CCN(C)C[C@H]1C [Compound 38]
406 | 53.8 | 598 | – | – | – | – | C=CC(=O)Nc1cc(Nc2nccc(-n3cc(CN(C)C)c(-c4ccccc4)n3)n2)c(OC)cc1N1CCOCC1 [Compound 34, N-(5-((4-(4-((dimethylamine)methyl)-3-phenyl-1H-pyrazol-1-yl)pyrimidin-2-yl)amine)-4-methoxy-2-morpholinylphenyl)acrylamide]
– | – | – | 176 | 66.4 | 237 | – | C=CC(=O)Nc1cc(Nc2nccc(-c3cn(C4CC4)c4ccccc34)n2)c(OC)cc1N(C)CCN(C)C [Compound 28, N-(5-((4-(1-cyclopropyl-1H-indole)pyrimidin-2-yl)-2-((2-(dimethylamino)ethyl(methyl)amine)-4-methoxyphenyl)acrylamide hydrochloride]
– | – | – | – | – | – | 57 | C=CC(=O)Nc1cc(Nc2nccc(-n3nc(F)c4ccccc43)n2)c(OC)cc1N(C)CCN(C)C [Example 7]
– | – | – | – | – | – | 57 | C=CC(=O)Nc1cc(Nc2ncnc(-n3nc(F)c4ccccc43)n2)c(OC)cc1N(C)CCN(C)C [Example 3, N-(2-((2-(dimethylamino)ethyl)(methyl)amino)-5-((4-(3-fluoro-1H-indazol-1-yl)-1,3,5-triazin-2-yl)amino)-4-methoxyphenyl)acrylamide]
– | – | – | – | – | – | 130 | COc1cc(N2CC[C@@H]2CN(C)C)c(NC(=O)/C=C/CN(C)C)cc1Nc1ncnc(-n2ccc3cnccc32)n1 [Example 2, (R,E)-N-(5-((4-(1H-pyrrole[3,2-c]pyridin-1-yl)-1,3,5-triazin-2-yl)amino)-2-(2-((dimethylamino)methyl)azetidine-1-yl)-4-methoxyphenyl)-4-(dimethylamino)butene-2-amide]
319 | 177 | 195 | – | – | – | – | C=CC(=O)Nc1cc(Nc2nccc(-c3cn(C)c4ccc(F)cc34)n2)c(OCC)cc1N(C)CCNC [Compound 27, N-(4-ethoxy-5-((4-(5-fluoro-1-methyl-1H-indol-3-yl)pyrimidin-2-yl)amino)-2-(methyl(2-(methylamino)ethyl)amino)phenyl)acrylamide]
105 | 106 | 146 | – | – | – | – | C=CC(=O)Nc1cccc(Oc2nc(Nc3ccc(N4CCN(C)CC4)c(F)c3)nc3[nH]ccc23)c1 [Compound 35, N-(3-((2-((3-fluoro-4-(4-methylpiperazin-1-yl)phenyl)amine)-7H-pyrazole[2,3-d]pyrimidine-4-yl)oxo)phenyl)acrylamide]
455 | 309 | 963 | – | – | – | – | Cc1cc(C(=O)Nc2nc3cccc(Cl)c3n2[C@@H]2CCCCN(C(=O)/C=C/CN(C)C)C2)ccn1 [Compound 39, (R,E)-N-(7-chloro-1-(1-(4-(dimethylamine)-2-butenoyl)azepane-3-yl)-1H-benzo[d]imidazol-2-yl)-2-methylisonicotinamide]
174 | 60.7 | 240 | – | – | – | – | C=CC(=O)Nc1cc(Nc2nccc(-c3cn(C4CC4)c4ccccc34)n2)c(OC)cc1N(C)CCN(C)C [Compound 29, N-(5-((4-(1-cyclopropyl-1H-indole)pyrimidin-2-yl)-2-((2-(dimethylamino)ethyl(methyl)amine)-4-methoxyphenyl)acrylamide methanesulfonate]
